In patent US20070299062A1 (The Procter & Gamble Company, priority 2006, published 2007):
Read-outs that look alike come from different tables or passages of the source.

Key:
MCH-1R = MCH-1R (UniProt Q99705); test: MCH-1R competition binding assay
Description: In vitro binding and function assays are performed on membranes derived from cells or tissues expressing endogenous MCH1R. Competition binding assays are performed to identify high affinity compounds. Briefly, either radiolabeled or europium labeled MCH with varying concentrations of competitor compound which are incubated with membranes expressing the receptor. Rat brain membrane or cell lines, including but not limited to human Kelly neuroblastoma cells, A-431 epidermoid cells, and rat PC-12 cells are known to express endogenous MCH1R and are used in the assay. Binding is allowed to proceed until equilibrium is reached then bound labeled MCH is separated from free MCH by capturing membranes onto a filter. The filters are washed to remove loosely associated MCH and labeled MCH is quantified. Data is analyzed and IC50 and Ki are calculated to determine compound affinity.

5-HT2c receptor = target: T1, 5-HT2c receptor (Homo sapiens, UniProt P28335); test: 5-HT2c receptor binding assay (3H-mesulergine competition)
T1 construct: purchased Perkin-Elmer or Euroscreen (named only as possible suppliers)
T1 sequence (P28335 33-458): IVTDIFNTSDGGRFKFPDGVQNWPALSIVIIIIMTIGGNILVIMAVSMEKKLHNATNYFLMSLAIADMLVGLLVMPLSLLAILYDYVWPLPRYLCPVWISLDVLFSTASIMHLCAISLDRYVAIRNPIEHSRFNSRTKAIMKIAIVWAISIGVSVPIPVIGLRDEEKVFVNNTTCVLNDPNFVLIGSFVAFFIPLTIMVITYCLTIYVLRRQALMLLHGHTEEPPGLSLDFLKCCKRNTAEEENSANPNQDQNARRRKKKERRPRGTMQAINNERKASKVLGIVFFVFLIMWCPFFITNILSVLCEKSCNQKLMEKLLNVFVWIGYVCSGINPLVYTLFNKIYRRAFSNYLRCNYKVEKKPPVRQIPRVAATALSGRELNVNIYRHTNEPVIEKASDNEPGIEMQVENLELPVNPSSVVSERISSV
Description: MCH antagonist compounds are evaluated for binding to the serotonin 5-HT2c receptor to determine receptor selectivity. Binding activity is assessed using a competitive assay with ^3H-mesulergine (Perkin Elmer), a 5-HT2c selective ligand, on membrane containing the 5-HT2c receptor. Briefly, 1 nM ^3H-mesulergine and varying concentrations of the compound are incubated with 5-HT2c receptor membranes, following an incubation period, the membranes are washed and ^3H-mesulergine bound to membranes is measured in a liquid scintillation counter. The amount of bound ^3H-mesulergine at the varying concentration of competitor compound is used to derive the affinity (Ki) of the compound for the 5-HT2c receptor. 5-HT2c receptor containing membranes are readily available from several companies including Perkin-Elmer and Euroscreen.

[1] = 1 nM 3H-mesulergine, read-out: Ki (nM) binding data 5-HT2C

SMILES | Ki (MCH-1R) [nM] | Ki (5-HT2c receptor; [1]) [nM] | Ki (5-HT2c receptor) [nM]
CC(=O)N1CCN(Cc2ccc3c(c2)CC[C@H](n2cnc4cc(-c5ccsc5)sc4c2=O)C3)CC1 [(S)-3-[6-(4-Acetylpiperazin-1-ymethyl)-1,2,3,4-tetrahydronapthalen-2-yl]-6-(thien-3-yl)thieno[3,2-d]pyrimidin-4(3H)-one] | 137 | 2010 | 
CC(=O)N1CCN(Cc2ccc3c(c2)CC[C@H](n2cnc4cc(-c5cncc(F)c5)sc4c2=O)C3)CC1 [(S)-3-[6-(4-Acetylpiperazin-1-ymethyl)-1,2,3,4-tetrahydronapthalen-2-yl]-6-(5-fluoropyridin-3-yl)thieno[3,2-d]pyrimidin-4(3H)-one] | 97 | > 100000 | 
COc1cncc(-c2cc3ncn([C@H]4CCc5cc(CN6CCN(S(C)(=O)=O)CC6)ccc5C4)c(=O)c3s2)c1 | 17.9 |  | > 100000
CC(=O)N1CCN(Cc2ccc3c(c2)CC[C@H](n2cnc4cc(-c5cc(F)cc(F)c5)sc4c2=O)C3)CC1 [(S)-3-[6-(4-Acetylpiperazin-1-ymethyl)-1,2,3,4-tetrahydronapthalen-2-yl]-6-(3,5-difluorophenyl)thieno[3,2-d]pyrimidin-4(3H)-one] | 369 | > 100000 | 
CS(=O)(=O)CCNCc1ccc2c(c1)CC[C@H](n1cnc3cc(-c4ccc(Cl)cc4)sc3c1=O)C2 [6-(4-Chlorophenyl)-3-{(S)-6-[(2-methanesulfonyl-ethylamino)methyl]-1,2,3,4-tetrahydronapthealen-2-yl}thieno[3,2-d]pyrimidin-4(3H)-one] | 22.6 | > 100000 | 
CC(=O)N1CCN(Cc2ccc3c(c2)CC[C@H](n2cnc4cc(-c5cncc(Cl)c5)sc4c2=O)C3)CC1 [(S)-3-[6-(4-Acetylpiperazin-1-ymethyl)-1,2,3,4-tetrahydronapthalen-2-yl]-6-(5-chloropyridin-3-yl)thieno[3,2-d]pyrimidin-4(3H)-one] | 38 | > 100000 | 
CS(=O)(=O)N1CCN(Cc2ccc3c(c2)CC[C@H](n2cnc4cc(-c5cncc(Cl)c5)sc4c2=O)C3)CC1 | 21 |  | > 100000
CC(=O)N1CC2CC1CN2Cc1ccc2c(c1)CC[C@H](n1cnc3cc(-c4ccc(Cl)cc4)sc3c1=O)C2 (stereo partly drawn) [(S)-6-(4-Chlorophenyl)-3-[6-(5-acetyl-2,5-diaza-bicyclo[2.2.1]hept-2-ylmethyl)-1,2,3,4-tetrahydronaphthalen-2-yl)thieno[3,2-d]pyrimidin-4(3H)-one] | 1.8 | > 100000 | 
CS(=O)(=O)N1CCN(Cc2ccc3c(c2)CC[C@H](n2cnc4cc(-c5cncc(F)c5)sc4c2=O)C3)CC1 | 13.4 |  | > 100000
CS(=O)(=O)N1CCN(Cc2ccc3c(c2)CC[C@H](n2cnc4cc(-c5cc(F)cc(F)c5)sc4c2=O)C3)CC1 | 117 | > 100000 | 
COc1ncccc1-c1cc2ncn([C@H]3CCc4cc(CN5CCN(S(C)(=O)=O)CC5)ccc4C3)c(=O)c2s1 | 373 | > 100000 | 

Further lines, with some results ahead:

Ki (MCH-1R) [nM] | Ki (5-HT2c receptor; [1]) [nM] | SMILES | Ki (5-HT2c receptor) [nM]
496 | > 100000 | CC(=O)N1CCN(Cc2ccc3c(c2)CC[C@H](n2cnc4cc(-c5ccnc(Cl)c5)sc4c2=O)C3)CC1 [(S)-3-[6-(4-Acetylpiperazin-1-ymethyl)-1,2,3,4-tetrahydronapthalen-2-yl]-6-(2-chloropyridin-4-yl)thieno[3,2-d]pyrimidin-4(3H)-one] | 
103 | > 100000 | O=c1c2sc(-c3ccc(Cl)cc3)cc2ncn1[C@H]1CCc2cc(CN3CCOCC3)ccc2C1 [(S)-6-(4-Chlorophenyl)-3-[6-(morpholinomethyl)-1,2,3,4-tetrahydronapthalene-2-yl]thieno[3,2-d]pyrimidin-4-(3H)-one] | 
8.4 | > 100000 | CC(=O)N1CCN(Cc2ccc3c(c2)CC[C@H](n2cnc4cc(-c5ccc(F)cc5F)sc4c2=O)C3)CC1 [(S)-3-[6-(4-Acetylpiperazin-1-ymethyl)-1,2,3,4-tetrahydronapthalen-2-yl]-6-(2,4-difluorophenyl)thieno[3,2-d]pyrimidin-4(3H)-one] | 
36.6 | > 100000 | CC(=O)N1CCN(Cc2ccc3c(c2)CC[C@H](n2cnc4cc(-c5ccc(F)c(F)c5)sc4c2=O)C3)CC1 [(S)-3-[6-(4-Acetylpiperazin-1-ymethyl)-1,2,3,4-tetrahydronapthalen-2-yl]-6-(3,4-difluorophenyl)thieno[3,2-d]pyrimidin-4(3H)-one] | 
54.5 | > 100000 | CC(=O)N1CCN(Cc2ccc3c(c2)CC[C@H](n2cnc4cc(-c5ccc(Cl)c(Cl)c5)sc4c2=O)C3)CC1 [(S)-3-[6-(4-Acetylpiperazin-1-ymethyl)-1,2,3,4-tetrahydronapthalen-2-yl]-6-(3,4-dichlorophenyl)thieno[3,2-d]pyrimidin-4(3H)-one] | 
